Data published in ChEMBL document CHEMBL2311441.

Biological target: T1, NAD-dependent protein deacetylase sirtuin-1 (Homo sapiens) (UniProt Q96EB6)
T1 sequence (whole entry): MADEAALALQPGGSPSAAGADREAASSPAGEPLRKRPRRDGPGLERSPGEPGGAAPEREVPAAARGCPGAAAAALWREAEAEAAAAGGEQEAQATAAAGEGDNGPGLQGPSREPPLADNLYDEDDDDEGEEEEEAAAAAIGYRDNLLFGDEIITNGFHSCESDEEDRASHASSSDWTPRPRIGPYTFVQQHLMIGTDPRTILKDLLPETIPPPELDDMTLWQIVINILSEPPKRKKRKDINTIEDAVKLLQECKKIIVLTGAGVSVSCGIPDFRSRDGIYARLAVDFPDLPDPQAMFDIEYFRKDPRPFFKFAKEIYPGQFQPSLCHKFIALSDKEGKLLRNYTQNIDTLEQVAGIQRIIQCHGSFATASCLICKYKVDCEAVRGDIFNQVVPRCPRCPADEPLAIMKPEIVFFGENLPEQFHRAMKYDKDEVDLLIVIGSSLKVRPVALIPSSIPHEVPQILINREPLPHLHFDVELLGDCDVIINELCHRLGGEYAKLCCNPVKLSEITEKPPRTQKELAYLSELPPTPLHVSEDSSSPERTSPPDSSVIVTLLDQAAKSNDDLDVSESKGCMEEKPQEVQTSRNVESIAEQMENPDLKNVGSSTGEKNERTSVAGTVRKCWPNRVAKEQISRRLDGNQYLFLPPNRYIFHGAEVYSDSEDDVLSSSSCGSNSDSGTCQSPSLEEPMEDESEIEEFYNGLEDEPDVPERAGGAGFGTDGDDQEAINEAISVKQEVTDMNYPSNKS
Details: Sf9

ΔTm [°C]	Compound
10	NC(=O)[C@@H]1CCCc2c1[nH]c1ccc(Cl)cc21
10	NC(=O)[C@@H]1CCCCc2c1[nH]c1ccc(Cl)cc21
